pIC50: −log10 of the molar value. Entries after “also recorded” stand apart in the source; their conditions may differ.
Legend:
[1] = molecular target: T1, ATAD2 bromodomain / histone H3.3 (Homo sapiens, UniProt Q6PL18); experiment: Cellular NanoBRET displacement, ATAD2 bromodomain from histone H3.3; format: cell-based; details: NanoBRET (Promega)
T1 sequence (Q6PL18 980-1092 limits assumed): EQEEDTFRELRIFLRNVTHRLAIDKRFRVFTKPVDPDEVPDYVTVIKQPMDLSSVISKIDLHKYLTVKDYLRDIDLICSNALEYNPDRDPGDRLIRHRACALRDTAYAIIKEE

CLND solubility = format: physicochemical
[2] = molecular target: T2, full-length ATAD2 / histone H3.3 (Homo sapiens, UniProt Q6PL18); experiment: Cellular NanoBRET displacement, full-length ATAD2 from histone H3.3; format: cell-based
T2 sequence (Q6PL18 1-1390): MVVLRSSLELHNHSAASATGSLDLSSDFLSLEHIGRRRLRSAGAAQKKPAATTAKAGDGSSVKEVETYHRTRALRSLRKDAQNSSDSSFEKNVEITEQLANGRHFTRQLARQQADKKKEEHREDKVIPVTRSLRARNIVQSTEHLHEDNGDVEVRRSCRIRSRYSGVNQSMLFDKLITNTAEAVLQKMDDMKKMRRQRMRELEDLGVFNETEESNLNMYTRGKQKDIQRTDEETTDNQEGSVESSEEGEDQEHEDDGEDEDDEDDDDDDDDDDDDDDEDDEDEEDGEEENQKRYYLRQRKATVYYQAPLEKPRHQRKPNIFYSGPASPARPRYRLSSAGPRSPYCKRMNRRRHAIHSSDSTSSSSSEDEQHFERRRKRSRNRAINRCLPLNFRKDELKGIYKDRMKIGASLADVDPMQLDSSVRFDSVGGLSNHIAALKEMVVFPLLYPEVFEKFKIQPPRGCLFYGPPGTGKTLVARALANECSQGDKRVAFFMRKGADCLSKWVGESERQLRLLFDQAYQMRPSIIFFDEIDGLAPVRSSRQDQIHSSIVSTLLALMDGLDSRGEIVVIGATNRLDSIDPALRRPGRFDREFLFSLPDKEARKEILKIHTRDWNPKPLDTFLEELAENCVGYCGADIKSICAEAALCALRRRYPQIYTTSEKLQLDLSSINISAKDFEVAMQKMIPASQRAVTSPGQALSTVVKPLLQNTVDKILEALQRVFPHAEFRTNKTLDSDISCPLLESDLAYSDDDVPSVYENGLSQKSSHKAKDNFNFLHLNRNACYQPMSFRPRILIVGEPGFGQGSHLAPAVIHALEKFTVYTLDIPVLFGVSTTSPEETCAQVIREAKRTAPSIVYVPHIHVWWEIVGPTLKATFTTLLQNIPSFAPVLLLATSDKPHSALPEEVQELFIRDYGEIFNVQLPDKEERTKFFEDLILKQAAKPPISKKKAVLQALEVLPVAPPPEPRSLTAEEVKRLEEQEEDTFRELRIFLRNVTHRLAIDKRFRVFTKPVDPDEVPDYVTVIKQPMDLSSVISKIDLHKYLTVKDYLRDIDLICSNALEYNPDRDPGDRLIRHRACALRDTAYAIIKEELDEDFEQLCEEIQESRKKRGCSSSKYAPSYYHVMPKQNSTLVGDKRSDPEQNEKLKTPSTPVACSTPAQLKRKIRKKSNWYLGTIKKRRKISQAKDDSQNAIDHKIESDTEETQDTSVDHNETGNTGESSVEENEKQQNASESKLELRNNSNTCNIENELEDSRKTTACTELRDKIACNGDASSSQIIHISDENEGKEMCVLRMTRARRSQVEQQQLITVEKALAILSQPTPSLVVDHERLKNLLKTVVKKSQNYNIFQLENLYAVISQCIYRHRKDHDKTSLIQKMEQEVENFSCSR

[3] = tested on: genes involved in cell cycle and division; experiment: Expression of genes involved in cell cycle and division; format: cell-based
[4] = tested on: internal GSK panel of 40 targets considered as potential liabilities; experiment: Internal GSK panel of 40 liability targets; details: data not shown
colony formation = experiment: Colony formation; format: cell-based
BRD2 BD1 = BRD2 BD1 (Homo sapiens, UniProt P25440); experiment: BRD2 BD1 TR-FRET; format: binding
ATAD2B bromodomain = molecular target: T3, ATAD2B bromodomain (Homo sapiens, UniProt Q9ULI0); experiment: ATAD2B TR-FRET; format: binding
T3 sequence (Q9ULI0 951-1066 limits assumed): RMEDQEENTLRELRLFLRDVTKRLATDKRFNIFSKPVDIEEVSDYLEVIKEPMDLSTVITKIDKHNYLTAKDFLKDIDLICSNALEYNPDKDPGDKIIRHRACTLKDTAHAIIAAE

tandem BRD4 bromodomains = tandem BRD4 bromodomains (Homo sapiens, UniProt O60885); experiment: BRD4 tandem isothermal titration calorimetry; format: binding
Chrom logD = format: physicochemical; details: pH 7.4

Chain of BRD2 BD1 (P25440 74-180 limits assumed): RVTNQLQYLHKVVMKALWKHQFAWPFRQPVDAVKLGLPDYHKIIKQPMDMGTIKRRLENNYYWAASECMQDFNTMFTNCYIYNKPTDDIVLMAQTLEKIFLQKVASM

For CO[C@H]1CNC[C@@H](OCC2CCC(F)(F)CC2)[C@@H]1Nc1ncc(-c2cncc(C)c2)c2cc(C)c(=O)[nH]c12 [Compound 16], the “Displacement of labelled ATAD2 bromodomain from histone H3.3” value [1] was “dose-dependent displacement; also recorded: displaces the ATAD2 bromodomain construct”, the solubility (CLND solubility) was greater than 439 µM and the “Displacement of full-length ATAD2 from histone H3.3” value [2] was “ineffective; also recorded: does not displace full-length ATAD2”. The “Inhibition of genes involved in cell cycle and division” value [3] was “only seen at high compound concentrations”, the “Off-target activity against internal GSK panel of 40 targets” value [4] was “inactive” and the “Effects on colony formation” value (colony formation) was “only seen at high compound concentrations”. The pIC50 (BRD2 BD1) was no more than 4.40, the pIC50 (ATAD2B bromodomain) was 7.70 and the “Interaction with tandem BRD4 bromodomains by ITC” value (tandem BRD4 bromodomains) was “no interaction detected”. It also gave a chromatographic logD (Chrom logD) of 3.2.
